Results reported in patent US9987208B2, “Elastin synthesis/regeneration promoting agent” (NISHIZAKI BIOINFORMATION RESEARCH INSTITUTE, priority 2013, dated 2018).

What was measured:
PKC-ε = target: T1, PKC-ε (Homo sapiens, UniProt Q02156); settings: cited from earlier work
T1 sequence (Q02156 1-737): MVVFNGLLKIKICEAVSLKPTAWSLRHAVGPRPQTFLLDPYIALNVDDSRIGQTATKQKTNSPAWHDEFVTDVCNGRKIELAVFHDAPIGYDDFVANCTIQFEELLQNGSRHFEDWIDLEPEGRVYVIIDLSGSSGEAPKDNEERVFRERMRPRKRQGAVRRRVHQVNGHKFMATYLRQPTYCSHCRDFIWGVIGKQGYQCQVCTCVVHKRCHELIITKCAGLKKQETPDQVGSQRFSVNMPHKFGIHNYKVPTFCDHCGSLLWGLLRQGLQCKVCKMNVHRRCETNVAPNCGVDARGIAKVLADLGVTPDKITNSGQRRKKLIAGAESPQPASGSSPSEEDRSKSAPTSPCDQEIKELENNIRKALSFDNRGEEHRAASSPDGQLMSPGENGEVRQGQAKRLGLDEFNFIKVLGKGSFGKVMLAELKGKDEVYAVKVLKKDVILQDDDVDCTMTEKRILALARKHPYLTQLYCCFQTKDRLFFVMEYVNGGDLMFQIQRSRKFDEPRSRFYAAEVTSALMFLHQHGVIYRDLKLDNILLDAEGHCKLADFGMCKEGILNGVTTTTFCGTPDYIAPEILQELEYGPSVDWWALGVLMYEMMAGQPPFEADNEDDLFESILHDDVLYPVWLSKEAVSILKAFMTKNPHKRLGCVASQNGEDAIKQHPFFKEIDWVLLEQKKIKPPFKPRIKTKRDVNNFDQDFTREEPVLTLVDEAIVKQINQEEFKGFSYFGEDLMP

fibrin-5 = assay: Western blotting of fibrin-5 secreted into culture medium; format: cell-based, human; settings: DCP-LA 100 nM, 0-24 hr, FIG. 3
Procedure: (§1) Normal human fibroblast was purchased from Lonza (Verviers, Belgium). The cells were cultured in FGM™-2 BulletKit™ (Lonza) at 5% CO2 and 95% air under wet atmosphere at 37° C.
The cultured normal human skin fibroblast was treated with DCP-LA (100 nM) for 0-24 hr, and the culture medium was recovered. After precipitation with 5% (w/v) trichloroacetic acid, protein was separated by sodium dodecyl sulfate-polyacrylamide electrophoresis (SDS-PAGE) using TGX gel (BioRad, Hercules, Calif., USA) and transferred on a polyvinylidene difluoride membrane. The blotting membrane was blocked with TBS-T [150 mM NaCl, 0.1% (v/v) Tween20 and 20 mM Tris, pH 7.5] containing 5% (w/v) BSA, and reacted with anti-fibrin-5 antibody (Sigma, St Louis, Mo., USA). After washing, the membrane was reacted with horseradish peroxidase-conjugated goat anti-rabbit IgG antibody. The immune reactivity was detected by ECL kit (GE Healthcare, Piscataway, N.J., USA), and visualized using a chemiluminescence detection system (GE Healthcare). The protein concentration of each sample was measured using a BCA protein assay kit (Thermo Fisher Scientific, Waltham, Mass., USA).

[1] = test system: senescence accelerated mouse; settings: cited from earlier work
[2] = test system: amyloid β peptide or scopolamine-treated rat; settings: cited from earlier work
nerve cell = settings: cited from earlier work
hippocampus nerve cells = settings: cited from earlier work
[3] = target: α7 nicotinic acetylcholine receptor (Homo sapiens, UniProt P36544); settings: α7 nicotinic acetylcholine receptor expressed in glutamatergic presynaptic cell as target; cited from earlier work
α7 nicotinic acetylcholine receptor, sequence (P36544 23-502): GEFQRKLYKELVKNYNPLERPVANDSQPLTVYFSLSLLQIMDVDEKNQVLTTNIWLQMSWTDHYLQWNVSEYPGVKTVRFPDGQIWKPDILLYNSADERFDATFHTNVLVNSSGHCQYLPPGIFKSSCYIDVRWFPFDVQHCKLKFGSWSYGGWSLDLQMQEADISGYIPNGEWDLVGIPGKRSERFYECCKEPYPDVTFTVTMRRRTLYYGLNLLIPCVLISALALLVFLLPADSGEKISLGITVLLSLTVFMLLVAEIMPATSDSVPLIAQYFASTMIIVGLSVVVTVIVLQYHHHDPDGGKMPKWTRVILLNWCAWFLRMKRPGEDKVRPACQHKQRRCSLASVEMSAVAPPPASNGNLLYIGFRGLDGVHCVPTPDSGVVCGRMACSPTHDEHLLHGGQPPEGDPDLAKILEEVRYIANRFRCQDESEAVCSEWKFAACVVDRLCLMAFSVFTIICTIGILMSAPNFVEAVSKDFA

[4] = test system: normal human skin fibroblast; assay: Immunocytological measurement of elastin fiber in fibroblasts with or without SNP; format: cell-based; settings: DCP-LA 100 nM, FIG. 1
Procedure: as §1
In the presence or absence of DCP-LA (100 nM), normal human skin fibroblasts were treated with sodium nitroprusside (SNP) (1 mM). Then, the cells were fixed with methanol at −20° C. for 30 min, and blocked with 2% (w/v) bovine serum albumin-containing phosphate buffered saline (PBS) at room temperature. The cells were reacted with an anti-elastin antibody (1:100) (Millipore, Temecula, Calif., USA) at 4° C. overnight, and then reacted with an Alexa488-conjugated goat anti-mouse IgG antibody (Molecular Probes, Eugene, Oreg., USA) at room temperature for 1 hr. After staining with 4′,6-diamidino-2-phenylindole (DAPI), the fluorescence-labeled cells were visualized with a confocal scanning laser microscope (Axiovert/LSM510; Carl Zeiss, Oberkochen, Germany). The fluorescence signal intensity of the elastin fiber was analyzed using ImageJ (Bethesda, Md., USA). The intensity of the elastin fiber was standardized by the intensity of DAPI.

HR-1 hairless mice = assay: Immunohistological measurement of elastin fiber in UV-irradiated mouse back skin; format: in vivo; settings: DCP-LA 1 mg/ml in PEG applied to back skin once per day, UV for 2 weeks, FIG. 2
Procedure: Male HR-1 hairless mice (7- to 8-week-old) were purchased from Japan SLC. Inc. (Shizuoka, Japan). The mice were reared in a chamber at controlled temperature in a cycle of 12 hr light conditions/12 hr dark conditions.
The mice were transferred to a special cage provided with a UV light on the roof and reared therein. UV light was continuously irradiated on the back skin at a distance of 12 cm for the whole 2 weeks.
During UV irradiation, DCP-LA (1 mg/ml) diluted with polyethylene glycol (PEG) was applied to the skin of the back of the mouse once per day.
The mice were sacrificed, a skin block was mounted on OTC (optimal cutting temperature compound), and cut out in about 10 μm thickness by a cryostat. A section was blocked with 5% (v/v) goat serum in PBS-Triton X-100 for 1 hr. Then, the section was incubated with an anti-elastin mouse monoclonal antibody (1:2000) (Millipore), which is the primary antibody, at 4° C. overnight, and then incubated with a goat anti-mouse IgG antibody (1:500) (Invitrogen, Carlsbad, Calif., USA) which is the secondary antibody, for 1 hr at room temperature. After staining with DAPI, the section was visualized with a confocal scanning laser microscope (Axiovert/LSM510; Carl Zeiss). The fluorescence signal intensity of the elastin fiber was quantified by NIH image. The intensity of the elastin fiber was standardized by the intensity of DAPI.

Compound: CCCCCC1CC1CC1CC1CCCCCCCC(=O)O (stereo not shown) [DCP-LA, 8-[2-(2-Pentyl-cyclopropylmethyl)-cyclopropyl]-octanoic acid]
- PKC-ε activation (PKC-ε): activates PKC-ε selectively and directly
- secretion amount of fibrin-5 (fibrin-5): increased the secretion amount of fibrin-5
- cognitive dysfunction [1]: improves cognitive dysfunction of senescence accelerated mouse
- cognitive dysfunction [2]: improves cognitive dysfunction of amyloid β peptide or scopolamine-treated rat
- nerve cell death induced by oxidative stress (nerve cell): suppress nerve cell death induced by oxidative stress
- release of γ aminobutyric acid (hippocampus nerve cells): increases release of γ aminobutyric acid from hippocampus nerve cells
- hippocampal synaptic transmission [3]: promotes hippocampal synaptic transmission
- regeneration against elastin degeneration induced by NO stress (relative density of elastin fiber relative to DAPI) ([4]; SNP 1 mM for 12 hr): promote regeneration against elastin degeneration induced by NO stress
- elastin synthesis (relative density of elastin fiber relative to the DAPI density) ([4]; untreated with SNP): promote elastin synthesis
- protection against elastin disorder caused by UV irradiation (relative density of elastin fiber relative to DAPI) (HR-1 hairless mice): protecting action against elastin disorder (elastin deterioration) caused by UV irradiation
